# Test results: patent US20230114728A1 (Venatorx Pharmaceuticals, Inc., priority 2019, published 2023)
# Experiments:
# [1] = system: N. gonorrhoeae ATCC 49226; test: Liquid broth MIC in Fastidious broth; format: cell-based; details: Neisseria gonorrhoeae, ATCC49226; N. gonorrhoeae strain ATCC 49226; Fastidious broth; read-out: Minimum Inhibitory Concentration, N. gonorrhoeae ATCC 49226
# Procedure, shortened: (§1)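 Colonies were swabbed from chocolate agar after 24 h growth and standardised by optical density at 600 nm. Compounds were serially diluted twofold in Fastidious broth, and bacteria added to give 5×10^5 CFU/mL. After about 24 h at 36 °C in 5% CO2, the lowest concentration allowing under 10% growth was taken as MIC.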
# [2] = system: N. gonorrhoeae FA1090; test: Liquid broth MIC in Fastidious broth; format: cell-based; details: Neisseria gonorrhoeae; N. gonorrhoeae strain FA1090; Fastidious broth; read-out: Minimum Inhibitory Concentration, N. gonorrhoeae FA1090
# Procedure, shortened: as §1
# [3] = system: N. gonorrhoeae H041; test: Liquid broth MIC in Fastidious broth; format: cell-based; details: Neisseria gonorrhoeae, H041, read-out: Minimum Inhibitory Concentration, N. gonorrhoeae H041
# Procedure, shortened: (§2)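 Mosaic-PBP2 strains grown 24 h on chocolate agar (36 °C, 5% CO2), then direct-suspended in saline and OD600-adjusted. Twofold compound dilutions in Fastidious broth inoculated at 5×10^5 CFU/mL and incubated ~24 h at 36 °C, 5% CO2. MIC read visually as lowest concentration with <10% growth versus full-growth wells.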
# [4] = system: N. gonorrhoeae WHO G; test: Liquid broth MIC in Fastidious broth; format: cell-based; details: Neisseria gonorrhoeae; N. gonorrhoeae strain WHO G; Fastidious broth; read-out: Minimum Inhibitory Concentration, N. gonorrhoeae WHO G
# Procedure, shortened: as §1
# [5] = system: N. gonorrhoeae WHO K; test: Liquid broth MIC in Fastidious broth; format: cell-based; details: Neisseria gonorrhoeae, read-out: Minimum Inhibitory Concentration, N. gonorrhoeae WHO K
# Procedure, shortened: as §2
# [6] = system: N. gonorrhoeae WHO L; test: Liquid broth MIC in Fastidious broth; format: cell-based; details: Neisseria gonorrhoeae; N. gonorrhoeae strain WHO L; Fastidious broth; read-out: Minimum Inhibitory Concentration, N. gonorrhoeae WHO L
# Procedure, shortened: as §1
# [7] = system: N. gonorrhoeae WHO Q; test: Liquid broth MIC in Fastidious broth; format: cell-based; details: Neisseria gonorrhoeae, read-out: Minimum Inhibitory Concentration, N. gonorrhoeae WHO Q
# Procedure, shortened: as §2
# [8] = system: N. gonorrhoeae WHO Z; test: Liquid broth MIC in Fastidious broth; format: cell-based; details: Neisseria gonorrhoeae, read-out: Minimum Inhibitory Concentration, N. gonorrhoeae WHO Z
# Procedure, shortened: as §2
# [9] = target: T1, P. aeruginosa PBP3 (Pseudomonas aeruginosa, UniProt G3XD46); test: Bocillin-FL fluorescence polarization competition binding assay, P. aeruginosa PBP3; details: fluorescence polarization competition binding assay using Bocillin-FL
# T1 construct: made in house
# T1 sequence (G3XD46 whole entry): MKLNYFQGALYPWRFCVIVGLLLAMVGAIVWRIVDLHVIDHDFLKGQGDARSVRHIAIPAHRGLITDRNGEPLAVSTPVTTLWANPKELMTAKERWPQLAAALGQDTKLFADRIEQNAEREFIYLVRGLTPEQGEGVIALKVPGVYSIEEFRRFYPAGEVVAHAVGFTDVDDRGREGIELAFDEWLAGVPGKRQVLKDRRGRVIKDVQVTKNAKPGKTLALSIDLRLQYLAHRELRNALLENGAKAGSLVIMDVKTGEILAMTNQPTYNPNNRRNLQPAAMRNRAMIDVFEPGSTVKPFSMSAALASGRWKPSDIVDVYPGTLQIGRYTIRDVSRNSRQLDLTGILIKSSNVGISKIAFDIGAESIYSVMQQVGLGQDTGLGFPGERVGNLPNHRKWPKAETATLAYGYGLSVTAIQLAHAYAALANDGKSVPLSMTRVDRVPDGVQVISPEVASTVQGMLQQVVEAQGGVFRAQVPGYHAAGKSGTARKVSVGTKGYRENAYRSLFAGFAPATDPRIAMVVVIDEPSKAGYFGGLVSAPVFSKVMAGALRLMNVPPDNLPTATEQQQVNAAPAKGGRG
# Procedure, shortened: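 Inhibitor competition with Bocillin-FL for P. aeruginosa PBP3 was followed by fluorescence polarization on a Cytation3 (BioTek) reader, using g-factor 0.96, 490 nm excitation and 520 nm emission. The enzyme was at 0.75 μM and the probe at 0.1 μM in Hepes/NaCl/glycerol buffer, 80 μl per well. FP was recorded immediately after probe addition for up to 60 minutes. Potency was expressed as EC50, the concentration that reduces bound probe by 50%.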
SMILES,MIC [1],MIC [2],MIC [3],MIC [4],MIC [5],MIC [6],MIC [7],MIC [8],P. aeruginosa PBP3 Potency [9]
"O=C(O)c1cccc2c1OB(O)[C@@H](NC(=O)C(NC(=O)N1CCN(CCF)C(=O)C1=O)c1c(F)cc(O)cc1F)C2 (mixture of isomers) [Example 119, (3R)-3-(2-(2,6-difluoro-4-hydroxyphenyl)-2-(4-(2-fluoroethyl)-2,3-dioxopiperazine-1-carboxamido)acetamido)-2-hydroxy-3,4-dihydro-2H-benzo[e][1,2]oxaborinine-8-carboxylic acid]",16 to 32 µg/mL,0.25 to 0.5 µg/mL,> 64 µg/mL,1 to 2 µg/mL,16 to 32 µg/mL,16 to 32 µg/mL,16 to 32 µg/mL,4 to 8 µg/mL,–
"NCCN1CCN(C(=O)N[C@H](C(=O)N[C@H]2Cc3cccc(C(=O)O)c3OB2O)c2c(F)cc(O)cc2F)C(=O)C1=O (single isomer, unassigned) [Example 110]",> 64 µg/mL,16 to 32 µg/mL,> 64 µg/mL,> 64 µg/mL,> 64 µg/mL,> 64 µg/mL,> 64 µg/mL,> 64 µg/mL,B (B represents a potency between 30 μM and 500 μM inclusive)
"NCCN1CCN(C(=O)N[C@@H](C(=O)N[C@H]2Cc3cccc(C(=O)O)c3OB2O)c2c(F)cc(O)cc2F)C(=O)C1=O (single isomer, unassigned) [Example 111]",16 to 32 µg/mL,1 to 2 µg/mL,> 64 µg/mL,4 to 8 µg/mL,> 64 µg/mL,> 64 µg/mL,> 64 µg/mL,> 64 µg/mL,D (D represents a potency <10 μM)
"NCCN1CCN(C(=O)N[C@@H](C(=O)N[C@H]2Cc3cccc(C(=O)O)c3OB2O)c2cccc(NS(N)(=O)=O)c2)C(=O)C1=O (single isomer, unassigned) [Example 114]",> 64 µg/mL,4 to 8 µg/mL,> 64 µg/mL,16 to 32 µg/mL,> 64 µg/mL,> 64 µg/mL,> 64 µg/mL,> 64 µg/mL,D (D represents a potency <10 μM)
"NCCN1CCN(C(=O)N[C@H](C(=O)N[C@H]2Cc3cccc(C(=O)O)c3OB2O)c2cccc(NS(N)(=O)=O)c2)C(=O)C1=O (single isomer, unassigned) [Example 115]",> 64 µg/mL,4 to 8 µg/mL,> 64 µg/mL,> 64 µg/mL,> 64 µg/mL,> 64 µg/mL,> 64 µg/mL,> 64 µg/mL,C (C represents a potency between 10 and 30 μM)
"NC1(CN2CCN(C(=O)N[C@@H](C(=O)N[C@H]3Cc4cccc(C(=O)O)c4OB3O)c3c(F)cc(O)cc3F)C(=O)C2=O)CC1 (single isomer, unassigned) [Example 121]",16 to 32 µg/mL,1 to 2 µg/mL,> 64 µg/mL,16 to 32 µg/mL,> 64 µg/mL,> 64 µg/mL,> 64 µg/mL,> 64 µg/mL,D (D represents a potency <10 μM)
"NC1(CN2CCN(C(=O)N[C@H](C(=O)N[C@H]3Cc4cccc(C(=O)O)c4OB3O)c3c(F)cc(O)cc3F)C(=O)C2=O)CC1 (single isomer, unassigned) [Example 122]",> 64 µg/mL,4 to 8 µg/mL,> 64 µg/mL,> 64 µg/mL,> 64 µg/mL,> 64 µg/mL,> 64 µg/mL,> 64 µg/mL,D (D represents a potency <10 μM)
"CCN1CCN(C(=O)N[C@H](C(=O)N[C@H]2Cc3cccc(C(=O)O)c3OB2O)c2ccc(C(=O)O)cc2)C(=O)C1=O (single isomer, unassigned) [Example 123]",4 to 8 µg/mL,0.25 to 0.5 µg/mL,16 to 32 µg/mL,1 to 2 µg/mL,4 to 8 µg/mL,16 to 32 µg/mL,4 to 8 µg/mL,1 to 2 µg/mL,D (D represents a potency <10 μM)
"CCN1CCN(C(=O)N[C@@H](C(=O)N[C@H]2Cc3cccc(C(=O)O)c3OB2O)c2ccc(C(=O)O)cc2)C(=O)C1=O (single isomer, unassigned) [Example 124]",1 to 2 µg/mL,< 0.125 µg/mL,4 to 8 µg/mL,0.25 to 0.5 µg/mL,4 to 8 µg/mL,4 to 8 µg/mL,1 to 2 µg/mL,1 to 2 µg/mL,D (D represents a potency <10 μM)
"CCN1CCN(C(=O)N[C@H](C(=O)N[C@H]2Cc3ccc(F)c(C(=O)O)c3OB2O)c2c(F)cc(O)c(O)c2Cl)C(=O)C1=O (single isomer, unassigned) [Example 125]",> 64 µg/mL,> 64 µg/mL,> 64 µg/mL,> 64 µg/mL,> 64 µg/mL,> 64 µg/mL,> 64 µg/mL,> 64 µg/mL,A (A represents a potency of >500 μM)
"O=C(O)c1cccc2c1OB(O)[C@@H](NC(=O)[C@H](NC(=O)N1CCN(CCF)C(=O)C1=O)c1c(F)cc(O)cc1F)C2 (single isomer, unassigned) [Example 126]",4 to 8 µg/mL,< 0.125 µg/mL,16 to 32 µg/mL,1 to 2 µg/mL,16 to 32 µg/mL,16 to 32 µg/mL,4 to 8 µg/mL,4 to 8 µg/mL,D (D represents a potency <10 μM)
"NCCN1CCN(C(=O)N[C@@H](C(=O)N[C@H]2Cc3ccc(F)c(C(=O)O)c3OB2O)c2c(F)cc(O)cc2F)C(=O)C1=O (single isomer, unassigned) [Example 127]",16 to 32 µg/mL,4 to 8 µg/mL,> 64 µg/mL,16 to 32 µg/mL,> 64 µg/mL,> 64 µg/mL,> 64 µg/mL,> 64 µg/mL,D (D represents a potency <10 μM)
"NCCN1CCN(C(=O)N[C@@H](C(=O)N[C@H]2Cc3cccc(C(=O)O)c3OB2O)c2cc(Cl)c(O)c(Cl)c2)C(=O)C1=O (single isomer, unassigned) [Example 166]",16 to 32 µg/mL,0.25 to 0.5 µg/mL,> 64 µg/mL,4 to 8 µg/mL,> 64 µg/mL,> 64 µg/mL,16 to 32 µg/mL,16 to 32 µg/mL,–
"CCN1CCN(C(=O)NC(C(=O)N[C@H]2Cc3cccc(C(=O)O)c3OB2O)c2c(F)cc(N)cc2F)C(=O)C1=O (stereo partly drawn) [Example 181, (3R)-3-(2-(4-amino-2,6-difluorophenyl)-2-(4-ethyl-2,3-dioxopiperazine-1-carboxamido)acetamido)-2-hydroxy-3,4-dihydro-2H-benzo[e][1,2]oxaborinine-8-carboxylic acid]",4 to 8 µg/mL,0.25 to 0.5 µg/mL,> 64 µg/mL,1 to 2 µg/mL,16 to 32 µg/mL,16 to 32 µg/mL,16 to 32 µg/mL,16 to 32 µg/mL,–
